Measurements reported in patent US9469615B2, “Quinoxalines and AZA-quinoxalines as CRTH2 receptor modulators” (Merck Sharp & Dohme Corp., priority 2010, dated 2016).

Each molecule was assayed against T1, hCRTH2 (Homo sapiens, UniProt Q9Y5Y4) (assay: Radioligand binding assay ([3H]PGD2 competition, HEK-hCRTH2 membranes)). Details: [3H]PGD2 binding, rated A-E (Table A).
T1 construct: expressed in transfected cells; host or cells: HEK (human embryonic kidney) cells expressing hCRTH2; membrane preparation
T1 sequence (Q9Y5Y4 1-395): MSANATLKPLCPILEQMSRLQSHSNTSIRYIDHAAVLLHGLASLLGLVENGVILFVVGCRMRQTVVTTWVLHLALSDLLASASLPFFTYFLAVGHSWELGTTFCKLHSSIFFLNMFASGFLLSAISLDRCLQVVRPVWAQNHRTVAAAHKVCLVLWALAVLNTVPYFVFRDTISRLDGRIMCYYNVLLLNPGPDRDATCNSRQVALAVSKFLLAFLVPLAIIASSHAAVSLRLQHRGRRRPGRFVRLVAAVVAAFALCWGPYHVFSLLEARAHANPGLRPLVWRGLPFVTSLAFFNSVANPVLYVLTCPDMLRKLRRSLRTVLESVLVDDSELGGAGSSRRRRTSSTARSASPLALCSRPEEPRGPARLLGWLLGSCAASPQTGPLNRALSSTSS
Method in brief: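 HEK-hCRTH2 membranes, 8-20 μg; [3H]PGD2 3.0 nM; 50 mM Tris-HCl pH 7.4/1 mM EDTA/2 mM MnCl2; DMSO 1%; 60 min RT; NSB 10 μM PGD2; filtration, scintillation counting.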

SMILES	Ki [nM]
C[C@H](c1ccc(Cl)cc1)N(C)C(=O)c1ccc2nc(-c3ccccc3)c(CCCCC(=O)O)nc2c1 [compound 238, 7-[[[1(R)-(4-chlorophenyl)ethyl]methylamino]carbonyl]-3-phenyl-2-quinoxalinepentanoic acid]	2.1 to 20
O=C(O)CCCCc1nc2cc(C(=O)N3CCC(c4ccccc4)C3)ccc2nc1-c1ccc(C(F)(F)F)cc1 (stereo in doubt) [compound 152, 7-[(3R)-phenyl-1-pyrrolidinyl)carbonyl]-3-[4-(trifluoromethyl)phenyl]-2-quinoxalinepentanoic acid]	2.1 to 20
CC(CCCc1nc2cc(C(=O)N3CC(c4ccccc4)C3)ccc2nc1-c1ccc(Cl)cc1)C(=O)O (stereo not drawn) [compound 165, 3-(4-chlorophenyl)-alpha-methyl-7-[(3-phenyl-1-azetidinyl)carbonyl]-2-quinoxalinepentanoic acid]	2.1 to 20
C[C@@H](NC(=O)c1ccc2nc(-c3ccc(Cl)cc3)c(CCCCC(=O)O)nc2c1)c1cccnc1 [compound 182, 3-(4-chlorophenyl)-7-[[[1(R)-(3-pyridinyl)ethyl]amino]carbonyl]-2-quinoxalinepentanoic acid]	2.1 to 20
O=C(O)CCCCc1nc2cc(C(=O)NCc3ccc(C(F)(F)F)cc3)cnc2nc1-c1ccccc1 [compound 14]	2.1 to 20

Second part, the molecule after the results:

Ki [nM]	SMILES
20.1 to 200	C[C@@H](NC(=O)c1cnc2nc(-c3ccccc3)c(CCCCC(=O)O)nc2c1)c1ccccc1 [14F, 5-(3-phenyl-7-{[(1R)-1-phenylethyl]carbamoyl}pyrido[2,3-b]pyrazin-2-yl)pentanoic acid]
0.1 to 2	CC(CCc1nc2cc(C(=O)N3CC[C@@H](c4ccccc4)C3)ccc2nc1-c1ccc(Cl)cc1)CC(=O)O (stereo partly drawn) [17K, 3-(4-chlorophenyl)-beta-methyl-7-[(3(S)-phenyl-1-pyrrolidinyl)carbonyl]-2-quinoxalinepentanoic acid]
0.1 to 2	COc1ccc([C@@H](C)NC(=O)c2ccc3nc(-c4ccc(Cl)cc4)c(CCC(C)CC(=O)O)nc3c2)cc1 (stereo partly drawn) [17o, 3-(4-chlorophenyl)-7-[[[1(R)-(4-methoxyphenyl)ethyl]amino]carbonyl]-beta-methyl-2-quinoxaline pentanoic acid]
2.1 to 20	CC(CCc1nc2cc(C(=O)NCc3ccc(OC(F)(F)F)cc3)ccc2nc1-c1ccc(C(F)(F)F)cc1)CC(=O)O (stereo not drawn) [17Y, beta-methyl-7-[[[[4-(trifluoromethoxy)phenyl]methyl]amino]carbonyl]-3-[4-(trifluoromethyl)phenyl]-2-quinoxalinepentanoic acid]
0.1 to 2	O=C(O)CCCCc1nc2cc(C(=O)N3CCCC3c3ccccc3)ccc2nc1-c1ccccc1 (stereo not shown) [15AL, 5-{3-phenyl-7-[(2-phenylpyrrolidin-1-yl)carbonyl]quinoxalin-2-yl}pentanoic acid]
2.1 to 20	C[C@@H]1CN(c2ccccc2)CCN1C(=O)c1ccc2nc(-c3ccccc3)c(NCCCC(=O)O)nc2c1 [44N, (R)-4-((7-(2-methyl-4-phenylpiperazine-1-carbonyl)-3-phenylquinoxalin-2-yl)amino)butanoic acid]
0.1 to 2	O=C(O)CCCCc1nc2cc(C(=O)N3CCC(c4ccccc4)CC3)ccc2nc1-c1cccc(Cl)c1 [26J, 3-(3-chlorophenyl)-7-[(4-phenyl-1-piperidinyl)carbonyl]-2-quinoxalinepentanoic acid]
2.1 to 20	C[C@H](NC(=O)c1ccc2nc(-c3ccccc3)c(OCCCC(=O)O)nc2c1)c1ccccc1 [10D, 4-[(3-phenyl-7-{[(1S)-1-phenylethyl]carbamoyl}quinoxalin-2-yl)oxy] butanoic acid]
0.1 to 2	O=C(O)CCCCc1nc2cc(C(=O)N3CCC(c4ccccc4)CC3)ccc2nc1-c1ccsc1 [26S, 7-[(4-phenyl-1-piperidinyl)carbonyl]-3-(3-thienyl)-2-quinoxalinepentanoic acid]
2.1 to 20	CC(CCc1nc2cc(C(=O)NCc3ccc(Cl)cc3)ccc2nc1-c1ccc(C(F)(F)F)cc1)CC(=O)O (stereo not drawn) [17X, 7-[[[(4-chlorophenyl)methyl]amino]carbonyl]-beta-methyl-3-[4-(trifluoromethyl)phenyl]-2-quinoxalinepentanoic acid]
0.1 to 2	O=C(O)CCCCc1nc2cc(C(=O)NCc3ccc(OC(F)(F)F)cc3)ccc2nc1-c1ccccc1 [15AV, 5-(3-phenyl-7-{[4-(trifluoromethoxy)benzyl]carbamoyl}quinoxalin-2-yl)pentanoic acid]
2.1 to 20	O=C(O)CCCNc1nc2cc(C(=O)N3CC[C@H](c4ccccc4)C3)ccc2nc1-c1ccccc1 [44M, (R)-4-((3-phenyl-7-(3-phenylpyrrolidine-1-carbonyl)quinoxalin-2-yl)amino)butanoic acid]
2.1 to 20	O=C(O)CCCCc1nc2cc(C(=O)N3CCC(c4ccccc4)C3)ccc2nc1-c1ccccc1 (stereo not shown) [15AK, 5-{3-phenyl-7-[(3-phenylpyrrolidin-1-yl)carbonyl]quinoxalin-2-yl}pentanoic acid]

Same assay, conditions: [3H]PGD2 binding, values in text

Ki [nM]	SMILES
2.9	O=C(O)CCCCc1nc2cc(C(=O)N3CCC(c4ccccc4)C3)ccc2nc1-c1ccc(C(F)(F)F)cc1 (stereo in doubt) [compound 152, 7-[(3R)-phenyl-1-pyrrolidinyl)carbonyl]-3-[4-(trifluoromethyl)phenyl]-2-quinoxalinepentanoic acid]

Same assay, conditions: [3H]PGD2 competition, Table B

Ki [nM]	SMILES
0.1 to 2	Cc1ccc(C)c(N2CCN(C(=O)c3ccc4nc(-c5ccc(Cl)cc5)c(CCCCC(=O)O)nc4c3)CC2)c1 [compound 629, 5-(3-(4-chlorophenyl)-7-(4-(2,5-dimethylphenyl)piperazine-l-carbonyl)quinoxalin-2-yl)pentanoic acid]
2.1 to 20	O=C(O)CCCCc1nc2cc(C(=O)N[C@@H]3CCS(=O)(=O)c4ccccc43)ccc2nc1-c1ccc(Cl)cc1 [compound 320, (R)-5-(3-(4-chlorophenyl)-7-((1,1-dioxidothiochroman-4-yl)carbamoyl)quinoxalin-2-yl)pentanoic acid]
2.1 to 20	O=C(N[C@@H](c1ccccc1)C(F)(F)F)c1ccc2nc(-c3ccc(Cl)cc3)c(CC3CCC(C(=O)O)C3)nc2c1 (stereo partly drawn) [compound 405, 3-((3-(4-chlorophenyl)-7-(((S)-2,2,2-trifluoro-1-phenylethyl)carbamoyl)quinoxalin-2-yl)methyl)cyclopentane-carboxylic acid]
2.1 to 20	O=C(O)CCCCc1nc2cc(C(=O)N[C@H]3CCCc4cc(F)ccc43)ccc2nc1-c1ccccc1 [compound 385, (S)-5-(7-((6-fluoro-1,2,3,4-tetrahydronaphthalen-1-yl)carbamoyl)-3-phenylquinoxalin-2-yl)pentanoic acid]
0.1 to 2	O=C(O)CCCCc1nc2cc(C(=O)N3CC[C@@H](c4ccc(F)cc4)C3)ccc2nc1-c1ccc(Cl)cc1 [compound 560, (S)-5-(3-(4-chlorophenyl)-7-(3-(4-fluorophenyl)pyrrolidine-1-carbonyl)quinoxalin-2-yl)pentanoic acid]
2.1 to 20	O=C(O)C1CCC(Cc2nc3cc(C(=O)N4CC(c5ccc(F)cc5)C4)ccc3nc2-c2ccc(Cl)cc2)C1 (stereo not shown) [compound 396, 3-((3-(4-chlorophenyl)-7-(3-(4-fluorophenyl)azetidine-1-carbonyl)quinoxalin-2-yl)methyl)cyclopentanecarboxylic acid]
2.1 to 20	O=C(O)CCCCc1nc2cc(C(=O)N[C@@H]3CCOc4cc(F)c(F)cc43)ccc2nc1-c1ccc(Cl)cc1 [compound 533, (R)-5-(3-(4-chlorophenyl)-7-((6,7-difluorochroman-4-yl)carbamoyl)quinoxalin-2-yl)pentanoic acid]
2.1 to 20	CC1Cc2ccccc2CCN1C(=O)c1ccc2nc(-c3ccc(Cl)cc3)c(CCCCC(=O)O)nc2c1 (stereo not shown) [compound 663, 5-(3-(4-chlorophenyl)-7-(2-methyl-2,3,4,5-tetrahydro-1H-benzo[d]azepine-3-carbonyl)quinoxalin-2-yl)pentanoic acid]
20.1 to 200	O=C(O)Cc1cccc(CCCc2nc3cc(C(=O)N4CCN(c5ccccc5)CC4)ccc3nc2-c2ccc(Cl)cc2)c1 [compound 543, 2-(3-(3-(3-(4-chlorophenyl)-7-(4-phenylpiperazine-1-carbonyl)quinoxalin-2-yl)propyl)phenyl)acetic acid]
2.1 to 20	O=C(O)CCCCc1nc2cc(C(=O)N[C@@H]3CCOc4ccc(F)cc43)ccc2nc1-c1ccccc1 [compound 641, (R)-5-(7-((6-fluoro-chroman-4-yl)carbamoyl)-3-phenylquinoxalin-2-yl)pentanoic acid]
2.1 to 20	CC1(C)CCC(NC(=O)c2ccc3nc(-c4ccc(Cl)cc4)c(CCCCC(=O)O)nc3c2)c2ccccc21 (stereo not shown) [compound 556]
0.1 to 2	COc1ccc(C2CN(C(=O)c3ccc4nc(-c5ccccc5)c(CCCCC(=O)O)nc4c3)C2)cc1 [compound 389, 5-(7-(3-(4-methoxyphenyl)azetidine-1-carbonyl)-3-phenylquinoxalin-2-yl)pentanoic acid]
2.1 to 20	Cc1ccc(N2CCN(C(=O)c3ccc4nc(-c5ccc(Cl)cc5)c(CCCCC(=O)O)nc4c3)CC2)cc1 [compound 665, 5-(3-(4-chlorophenyl)-7-(4-(p-tolyl)piperazine-1-carbonyl)quinoxalin-2-yl)pentanoic acid]
20.1 to 200	C[C@H](CCc1nc2cc(C(=O)N[C@H](C)c3ccc(F)cc3)ccc2nc1-c1ccc(F)cc1)CC(=O)O [compound 437, (R)-5-(3-(4-fluorophenyl)-7-(((R)-1-(4-fluorophenyl)ethyl)carbamoyl)quinoxalin-2-yl)-3-methylpentanoic acid]
2.1 to 20	C[C@@H](CCc1nc2cc(C(=O)N3CC(c4cccc(F)c4)C3)ccc2nc1-c1ccccc1)CC(=O)O [compound 290, (S)-5-(7-(3-(3-fluorophenyl)azetidine-1-carbonyl)-3-phenylquinoxalin-2-yl)-3-methylpentanoic acid]
